± gives the standard deviation of the averaged measurements.
What was measured:
MDV3100 = compound: CNC(=O)c1ccc(N2C(=S)N(c3ccc(C#N)c(C(F)(F)F)c3)C(=O)C2(C)C)cc1F [MDV3100]; test: surviving fraction relative to DMSO-only wells; higher = less growth inhibition; conditions: exposure time: 5 days
Summary of the method: (§1)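 Five days of continuous inhibitor exposure, at 0.5, 1, 5, 10, 50, 100, 500 and 1000 nM, followed a 24-hour period after log-phase tumour cell lines were seeded at 250–500 cells per well in 384-well plates. Surviving fraction was derived from CellTiter-Glo luminescence relative to the median of DMSO-only wells. Plates were read after 10 minutes at room temperature, and lines screened three times were kept only if replicate Pearson r >0.7 and median Z' >0.3.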

BI-2536 = compound: CC[C@@H]1C(=O)N(C)c2cnc(Nc3ccc(C(=O)NC4CCN(C)CC4)cc3OC)nc2N1C1CCCC1 [BI-2536]; test: as above; conditions: exposure time: 5 days
Summary of the method: as §1

| Test System | surviving fraction (MDV3100; 0.5 nM) | surviving fraction (MDV3100; 1 nM) | surviving fraction (MDV3100; 5 nM) | surviving fraction (MDV3100; 10 nM) | surviving fraction (MDV3100; 50 nM) | surviving fraction (MDV3100; 100 nM) | surviving fraction (MDV3100; 500 nM) | surviving fraction (MDV3100; 1000 nM) | surviving fraction (BI-2536; 0.5 nM) | surviving fraction (BI-2536; 1 nM) | surviving fraction (BI-2536; 5 nM) | surviving fraction (BI-2536; 10 nM) | surviving fraction (BI-2536; 50 nM) | surviving fraction (BI-2536; 100 nM) | surviving fraction (BI-2536; 500 nM) | surviving fraction (BI-2536; 1000 nM) |
| --- | --- | --- | --- | --- | --- | --- | --- | --- | --- | --- | --- | --- | --- | --- | --- | --- |
| MDAMB134 BREAST | 0.813 ± 0.09 | 0.82 ± 0.1 | 0.894 ± 0.2 | 0.918 ± 0.0099 | 1.06 ± 0.15 | 0.794 ± 0.033 | 1.17 ± 0.018 | 0.992 ± 0.25 | 0.944 ± 0.11 | 0.699 ± 0.069 | 0.792 ± 0.03 | 0.835 ± 0.034 | 1.2 ± 0.058 | 1.101 ± 0.0092 | 0.788 ± 0.0092 | 0.644 ± 0.048 |
| DU4475 BREAST | 0.806 ± 0.11 | 0.938 ± 0.086 | 0.832 ± 0.098 | 0.992 ± 0.052 | 0.958 ± 0.074 | 0.907 ± 0.089 | 0.965 ± 0.11 | 0.933 ± 0.046 | 0.997 ± 0.25 | 1.04 ± 0.051 | 0.536 ± 0.15 | 0.233 ± 0.047 | 0.0763 ± 0.027 | 0.057 ± 0.015 | 0.031 ± 0.0053 | 0.027 ± 0.002 |
| OS25HAL BONE | 0.968 ± 0.03 | 0.932 ± 0.015 | 0.962 ± 0.018 | 0.959 ± 0.011 | 1.06 ± 0.013 | 1.06 ± 0.03 | 1.04 ± 0.026 | 1.01 ± 0.057 | 1.003 ± 0.006 | 0.933 ± 0.064 | 0.0997 ± 0.016 | 0.0533 ± 0.0029 | 0.0483 ± 0.0015 | 0.0337 ± 0.004 | 0.0317 ± 0.0023 | 0.037 ± 0.002 |
| SYO1 SYNOVIAL | 0.989 ± 0.036 | 0.883 ± 0.051 | 0.946 ± 0.018 | 0.546 ± 0.027 | 0.91 ± 0.023 | 0.914 ± 0.032 | 0.987 ± 0.05 | 0.653 ± 0.023 | 1.02 ± 0.015 | 0.884 ± 0.045 | 0.108 ± 0.036 | 0.0738 ± 0.015 | 0.0606 ± 0.0062 | 0.0441 ± 0.0071 | 0.0205 ± 0.0005 | 0.0188 ± 0.0014 |
| SG27 HEADNECK | 1.064 ± 0.0067 | 1.01 ± 0.12 | 1.07 ± 0.13 | 0.935 ± 0.091 | 1.09 ± 0.04 | 1.19 ± 0.081 | 1.21 ± 0.2 | 1.17 ± 0.19 | 0.99 ± 0.077 | 1.16 ± 0.1 | 1.04 ± 0.06 | 1.03 ± 0.098 | 1 ± 0.076 | 1 ± 0.1 | 0.391 ± 0.11 | 0.212 ± 0.068 |
| S68 BREAST | 0.974 ± 0.2 | 1.04 ± 0.035 | 1.08 ± 0.11 | 1.04 ± 0.027 | 1.24 ± 0.076 | 1.34 ± 0.2 | 0.962 ± 0.21 | 0.949 ± 0.22 | 0.884 ± 0.16 | 0.839 ± 0.12 | 0.343 ± 0.067 | 0.271 ± 0.039 | 0.166 ± 0.013 | 0.116 ± 0.04 | 0.0923 ± 0.022 | 0.067 ± 0.015 |
| A549 LUNG | 0.971 ± 0.011 | 0.941 ± 0.029 | 0.978 ± 0.011 | 0.934 ± 0.032 | 1 ± 0.038 | 1.01 ± 0.015 | 1.01 ± 0.033 | 0.983 ± 0.04 | 1.02 ± 0.056 | 1 ± 0.034 | 0.48 ± 0.016 | 0.28 ± 0.0067 | 0.133 ± 0.0046 | 0.0943 ± 0.0074 | 0.0457 ± 0.0071 | 0.039 ± 0.003 |
| MDAMB157 BREAST | 0.935 ± 0.093 | 0.954 ± 0.071 | 0.933 ± 0.049 | 1.01 ± 0.079 | 0.927 ± 0.077 | 0.952 ± 0.071 | 0.853 ± 0.044 | 0.866 ± 0.097 | 0.912 ± 0.041 | 0.62 ± 0.19 | 0.0967 ± 0.0025 | 0.0937 ± 0.013 | 0.093 ± 0.0095 | 0.157 ± 0.033 | 0.224 ± 0.013 | 0.255 ± 0.0076 |
| SG31 HEADNECK | 0.928 ± 0.059 | 1.06 ± 0.037 | 1.01 ± 0.14 | 1.02 ± 0.14 | 1.07 ± 0.057 | 0.969 ± 0.17 | 1.18 ± 0.18 | 1.06 ± 0.028 | 1.09 ± 0.11 | 1.27 ± 0.057 | 0.77 ± 0.099 | 0.603 ± 0.03 | 0.531 ± 0.031 | 0.573 ± 0.029 | 0.49 ± 0.034 | 0.438 ± 0.064 |
| BT549 BREAST | 0.957 ± 0.078 | 1.02 ± 0.089 | 1 ± 0.11 | 0.939 ± 0.0099 | 1.01 ± 0.036 | 0.996 ± 0.099 | 0.992 ± 0.076 | 0.98 ± 0.057 | 0.905 ± 0.14 | 0.923 ± 0.052 | 0.229 ± 0.021 | 0.132 ± 0.038 | 0.0863 ± 0.0081 | 0.0867 ± 0.011 | 0.0667 ± 0.011 | 0.0373 ± 0.0093 |

— the supplement of paper PMC6045584
